Results published in US20060069132A1, “Azolecarboxamide herbicides” (priority 2004, published 2006).

Key:
[1] = tested on: giant foxtail; assay: Test A pre-/postemergence herbicide test; type: in vivo, Setaria faberi
Outline: (§1)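 Pre: seeded sandy loam, directed soil spray, compound in non-phytotoxic solvent + surfactant. Post: 1–2-leaf plants (2–10 cm), sprayed to runoff. Greenhouse ~10 d; visual injury vs untreated, 0–100 scale.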

[2] = tested on: pigweed; assay: Test B pre-/postemergence herbicide test; type: in vivo, Amaranthus retroflexus; details: for Pigweed plant response rating: postemergence
Outline: (§2)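 Formulation: non-phytotoxic solvent mix with surfactant. Timing: preemergence on seed and postemergence on 2–18 cm plants, applied concurrently. Readout after 13–15 d greenhouse: visual 0–100 control rating against controls.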

[3] = tested on: wild oat; assay: Test B postemergence herbicide test; type: in vivo, Avena fatua; details: postemergence
Outline: (§3)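 Postemergence plants were sprayed with formulated test chemicals at 2 to 18 cm height (1- to 4-leaf stage); paddy species were grown to the 2-leaf stage. After 13 to 15 days in a greenhouse, injury was rated visually against untreated controls on a 0–100 scale (0 = no effect, 100 = complete control).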

[4] = tested on: cocklebur; assay: Test B pre-/postemergence herbicide test; type: in vivo, Xanthium strumarium; details: for Cocklebur plant response rating: postemergence
Outline: (§4)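 Test chemicals in a non-phytotoxic solvent mixture with surfactant were applied preemergence to seeded species and postemergence to plants 2-18 cm tall (1- to 4-leaf stage); rice and barnyardgrass were also tested in a flooded paddy at the 2-leaf stage. Visual rating versus controls after 13-15 days in greenhouse, scale 0 (no effect) to 100 (complete control).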

[5] = tested on: small flower umbrella sedge; assay: Test B flooded paddy test; type: in vivo, Cyperus difformis; details: 1000 g ai/ha, scale 0 to 100 (0 no effect, 100 complete control)
Outline: (§5)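 Paddy species grown to the 2-leaf stage under flooding; blackgrass sprayed postemergence at 2–18 cm (1- to 4-leaf stage). Plants kept in a greenhouse for 13 to 15 days, then visually rated against controls on 0 (no effect) to 100 (complete control).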

[6] = tested on: giant foxtail; assay: Test B pre-/postemergence herbicide test; type: in vivo, Setaria faberi; details: for Foxtail, Giant plant response rating: postemergence
Outline: as §2

[7] = tested on: barnyardgrass; assay: Test B pre-/postemergence herbicide test; type: in vivo, Echinochloa crus-galli; details: for Barnyardgrass plant response rating: postemergence
Outline: as §4

[8] = tested on: rice; assay: Test B pre-/postemergence herbicide test; type: in vivo, Oryza sativa; details: 0 = no effect, 100 = complete control, preemergence
Outline: as §2

[9] = tested on: large crabgrass; assay: Test A pre-/postemergence herbicide test; type: in vivo, Digitaria sanguinalis
Outline: as §1

[10] = tested on: blackgrass; assay: Test B postemergence herbicide test; type: in vivo, Alopecurus myosuroides; details: postemergence
Outline: as §5

[11] = tested on: velvetleaf; assay: Test A pre-/postemergence herbicide test; type: in vivo, Abutilon theophrasti
Outline: as §1

[12] = tested on: morningglory; assay: Test A pre-/postemergence herbicide test; type: in vivo, Ipomoea spp.
Outline: as §1

[13] = tested on: rice; assay: Test B flooded paddy test; type: in vivo, Oryza sativa; details: 1000 g ai/ha, scale 0 to 100 (0 no effect, 100 complete control)
Outline: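 Scale 0–100: zero equals no visible effect, 100 complete control, judged by eye relative to controls. Timing: 13 to 15 days in greenhouse post-treatment. Growth stage at spraying: two leaves (paddy) or one to four leaves, 2–18 cm (postemergence).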

[14] = tested on: corn; assay: Test B pre-/postemergence herbicide test; type: in vivo, Zea mays; details: for Corn plant response rating: postemergence
Outline: as §2

[15] = tested on: Surinam grass; assay: Test B pre-/postemergence herbicide test; type: in vivo, Urochloa decumbens; details: for Surinam Grass plant response rating: postemergence
Outline: as §2

[16] = tested on: barnyardgrass; assay: Test A pre-/postemergence herbicide test; type: in vivo, Echinochloa crus-galli
Outline: as §1

[17] = tested on: velvetleaf; assay: Test B pre-/postemergence herbicide test; type: in vivo, Abutilon theophrasti; details: for Velvetleaf plant response rating: postemergence
Outline: as §2

[18] = tested on: redroot pigweed; assay: Test A pre-/postemergence herbicide test; type: in vivo, Amaranthus retroflexus
Outline: as §1

[19] = tested on: barnyardgrass; assay: Test B flooded paddy test; type: in vivo, Echinochloa crus-galli; details: 1000 g ai/ha, scale 0 to 100 (0 no effect, 100 complete control)
Outline: as §5

[20] = tested on: large crabgrass; assay: Test B pre-/postemergence herbicide test; type: in vivo, Digitaria sanguinalis; details: for Crabgrass, Large plant response rating: postemergence
Outline: as §2

[21] = tested on: lambsquarters; assay: Test B pre-/postemergence herbicide test; type: in vivo, Chenopodium album; details: for Lambsquarters plant response rating: postemergence
Outline: as §2

[22] = tested on: morningglory; assay: Test B pre-/postemergence herbicide test; type: in vivo, Ipomoea coccinea; details: for Morningglory plant response rating: postemergence
Outline: as §4

[23] = tested on: ducksalad; assay: Test B flooded paddy test; type: in vivo, Heteranthera limosa; details: 1000 g ai/ha, scale 0 to 100 (0 no effect, 100 complete control)
Outline: as §5

[24] = tested on: wheat; assay: Test B postemergence herbicide test; type: in vivo, Triticum aestivum; design: key to Wheat plant response rating: 0 = no effect, 100 = complete control; details: postemergence
Outline: as §3

[25] = Postemergence, 500 g ai/ha, 0 to 100 scale, 0 no effect, 100 complete control
[26] = Postemergence, 2000 g ai/ha, 0 to 100 scale, 0 no effect, 100 complete control
[27] = Preemergence, 2000 g ai/ha, visual rating, 0 to 100 scale (0 no effect, 100 complete control)
[28] = preemergence, 500 g ai/ha, visual injury, 0 to 100 scale (0 no effect, 100 complete control)
[29] = 125 g ai/ha, 0 = no effect, 100 = complete control, preemergence
[30] = 500 g ai/ha, visual rating, 0 = no effect, 100 = complete control, preemergence
[31] = 125 g ai/ha, visual rating, scale 0 (no effect) to 100 (complete control)
[32] = 500 g ai/ha, scale 0 to 100, 0 is no effect, 100 is complete control

CCn1nc(C(C)(C)C)cc1C(=O)Nc1nc(C(=O)N(C)C)ccc1F [Compound 277]
Foxtail, Giant plant response rating [1, 25]: 0 | Plant response rating, Foxtail, Giant [1, 26]: 0 | Foxtail, Giant plant response rating [1, 27]: 55 | Foxtail, Giant plant response rating [1, 28]: 0 | Pigweed plant response rating (0 to 100 scale) [2, 29]: 60 | Plant response rating, Pigweed [2, 30]: 100 | Pigweed plant response rating [2, 31]: 0 | Pigweed plant response rating [2, 32]: 10 | Oat, Wild plant response rating [3, 31]: 10 | Oat, Wild plant response rating [3, 32]: 20 | Cocklebur plant response rating (0 to 100 scale) [4, 29]: 0 | Plant response rating, Cocklebur [4, 30]: 10 | Cocklebur plant response rating [4, 31]: 0 | Cocklebur plant response rating [4, 32]: 0 | Sedge, Umbrella plant response rating [5]: 0 | Foxtail, Giant plant response rating (0 to 100 scale) [6, 29]: 0 | Plant response rating, Foxtail, Giant [6, 30]: 0 | Foxtail, Giant plant response rating [6, 31]: 0 | Foxtail, Giant plant response rating [6, 32]: 0 | Barnyardgrass plant response rating (0 to 100 scale) [7, 29]: 0 | Plant response rating, Barnyardgrass [7, 30]: 0 | Barnyardgrass plant response rating [7, 31]: 0 | Barnyardgrass plant response rating [7, 32]: 0 | Rice plant response rating (0 to 100 scale) ([8]; 125 g ai/ha): 0 | Plant response rating, Rice ([8]; 500 g ai/ha, visual rating): 20 | Crabgrass, Large plant response rating [9, 25]: 0 | Plant response rating, Crabgrass, Large [9, 26]: 0 | Crabgrass, Large plant response rating [9, 27]: 25 | Crabgrass, Large plant response rating [9, 28]: 0 | Blackgrass plant response rating [10, 31]: 10 | Blackgrass plant response rating [10, 32]: 20 | Velvetleaf plant response rating [11, 25]: 25 | Plant response rating, Velvetleaf [11, 26]: 30 | Velvetleaf plant response rating [11, 27]: 45 | Velvetleaf plant response rating [11, 28]: 5 | Morningglory plant response rating [12, 25]: 0 | Plant response rating, Morningglory [12, 26]: 0 | Morningglory plant response rating [12, 27]: 0 | Morningglory plant response rating [12, 28]: 0 | Rice plant response rating [13]: 0 | Corn plant response rating (0 to 100 scale) [14, 29]: 0 | Plant response rating, Corn [14, 30]: 0 | Corn plant response rating [14, 31]: 0 | Corn plant response rating [14, 32]: 10 | Surinam Grass plant response rating (0 to 100 scale) [15, 29]: 0 | Plant response rating, Surinam Grass [15, 30]: 0 | Surinam Grass plant response rating [15, 31]: 0 | Surinam Grass plant response rating [15, 32]: 0 | Barnyardgrass plant response rating [16, 25]: 0 | Plant response rating, Barnyardgrass [16, 26]: 50 | Barnyardgrass plant response rating [16, 27]: 70 | Barnyardgrass plant response rating [16, 28]: 0 | Velvetleaf plant response rating (0 to 100 scale) [17, 29]: 0 | Plant response rating, Velvetleaf [17, 30]: 40 | Velvetleaf plant response rating [17, 31]: 20 | Velvetleaf plant response rating [17, 32]: 20 | Pigweed plant response rating [18, 25]: 10 | Plant response rating, Pigweed [18, 26]: 35 | Pigweed plant response rating [18, 27]: 70 | Pigweed plant response rating [18, 28]: 40 | Barnyardgrass plant response rating [19]: 0 | Crabgrass, Large plant response rating (0 to 100 scale) [20, 29]: 0 | Plant response rating, Crabgrass, Large [20, 30]: 0 | Crabgrass, Large plant response rating [20, 31]: 0 | Crabgrass, Large plant response rating [20, 32]: 0 | Lambsquarters plant response rating (0 to 100 scale) [21, 29]: 40 | Plant response rating, Lambsquarters [21, 30]: 80 | Lambsquarters plant response rating [21, 31]: 20 | Lambsquarters plant response rating [21, 32]: 30 | Morningglory plant response rating (0 to 100 scale) [22, 29]: 0 | Plant response rating, Morningglory [22, 30]: 0 | Morningglory plant response rating [22, 31]: 0 | Morningglory plant response rating [22, 32]: 20 | Ducksalad plant response rating [23]: 0 | Wheat plant response rating [24, 31]: 20 | Wheat plant response rating [24, 32]: 20
